Measured values: patent US20210045385A1, “PYRIDAZINONE-SUBSTITUTED KETOXIMES AS HERBICIDES” (FMC Corporation, priority 2018, published 2021)

Experiments:
Assay type in all cases: in vivo
[1] = tested on: barnyardgrass (Echinochloa crus-galli); assay: Test B flooded paddy test, visual plant response rating; details: 250 g ai/ha, Flood, applied to paddy water, 2-leaf stage, evaluated after 13 to 15 days
Procedure, shortened: (§1)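 At the two-leaf stage, seedlings received compound applied to paddy water flooded 3 cm above soil, a level sustained until assessment. Greenhouse incubation lasted 13 to 15 days before visual comparison with control plants.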

[2] = tested on: sedge, umbrella (small-flower umbrella sedge, Cyperus difformis); assay: as above; details: 250 g ai/ha, Flood, applied to paddy water, 2-leaf stage, evaluated after 13 to 15 days
Procedure, shortened: as §1

[3] = tested on: ducksalad (Heteranhera limosa); assay: as above; details: 250 g ai/ha, Flood, applied to paddy water, 2-leaf stage, evaluated after 13 to 15 days
Procedure, shortened: as §1

rice (Oryza sativa) = assay: as above; details: 250 g ai/ha, Flood, applied to paddy water, 2-leaf stage, evaluated after 13 to 15 days
Procedure, shortened: as §1

[4] = tested on: pigweed (Amaranthus retroflexus); assay: Test A preemergence, visual plant response rating; details: for Pigweed plant response rating: 125 g ai/ha, preemergence, 0 to 100 scale, 0 no effect, 100 complete control; for Pigweed plant response rating (0 to 100 scale): 500 g ai/ha Preemergence, approx. 10 days
Procedure, shortened: (§2)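 Greenhouse evaluation, approx. 10 days post-spray. Soil: loam + sand. Postemergence stage: 1–2 leaves, height 2–10 cm. Vehicle: non-phytotoxic solvent blend with surfactant. Score: visual injury on a 0 (no effect) to 100 (complete control) scale.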

[5] = tested on: ragweed (common ragweed, Ambrosia elatior); assay: Test A preemergence, visual plant response rating; details: for Ragweed plant response rating: 125 g ai/ha, preemergence, 0 to 100 scale, 0 no effect, 100 complete control; for Ragweed plant response rating (0 to 100 scale): 500 g ai/ha Preemergence, approx. 10 days
Procedure, shortened: as §2

[6] = tested on: foxtail, giant (giant foxtail, Setaria faberii); assay: Test A preemergence, visual plant response rating; details: for Foxtail, Giant plant response rating: 125 g ai/ha, preemergence, 0 to 100 scale, 0 no effect, 100 complete control; for Foxtail, Giant plant response rating (0 to 100 scale): 500 g ai/ha Preemergence, approx. 10 days
Procedure, shortened: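 Ratings use a 0–100 visual scale (100 = complete control) against untreated controls, scored about 10 days after greenhouse treatment. Test chemicals were formulated in surfactant-containing non-phytotoxic solvent and applied either as soil spray after planting (preemergence) or onto one- to two-leaf, 2–10 cm plants (postemergence).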

[7] = tested on: barnyardgrass (Echinochloa crus-galli); assay: Test A preemergence, visual plant response rating; details: for Barnyardgrass plant response rating: 125 g ai/ha, preemergence, 0 to 100 scale, 0 no effect, 100 complete control; for Barnyardgrass plant response rating (0 to 100 scale): 500 g ai/ha Preemergence, approx. 10 days
Procedure, shortened: as §2

kochia (Kochia scoparia) [8] = assay: Test A preemergence, visual plant response rating; details: for Kochia plant response rating: 125 g ai/ha, preemergence, 0 to 100 scale, 0 no effect, 100 complete control; for Kochia plant response rating (0 to 100 scale): 500 g ai/ha Preemergence, approx. 10 days
Procedure, shortened: as §2

[9] = tested on: Italian ryegrass (Lolium multiflorum); assay: Test A preemergence, visual plant response rating; details: for Ryegrass, Italian plant response rating: 125 g ai/ha, preemergence, 0 to 100 scale, 0 no effect, 100 complete control; for Ryegrass, Italian plant response rating (0 to 100 scale): 500 g ai/ha Preemergence, approx. 10 days
Procedure, shortened: as §2

[10] = tested on: pigweed (Amaranthus retroflexus); assay: Test A postemergence, visual plant response rating; details: for Pigweed plant response rating (0 to 100 scale): 500 g ai/ha, postemergence, 0 is no effect, 100 is complete control; for Pigweed plant response rating: Postemergence, 125 g ai/ha, 0 to 100 scale (0 no effect, 100 complete control)
Procedure, shortened: as §2

[11] = tested on: ragweed (common ragweed, Ambrosia elatior); assay: Test A postemergence, visual plant response rating; details: for Ragweed plant response rating (0 to 100 scale): 500 g ai/ha, postemergence, 0 is no effect, 100 is complete control; for Ragweed plant response rating: Postemergence, 125 g ai/ha, 0 to 100 scale (0 no effect, 100 complete control)
Procedure, shortened: as §2

[12] = tested on: wheat (Triticum aestivum); assay: Test A postemergence, visual plant response rating; details: for Wheat plant response rating (0 to 100 scale): 500 g ai/ha, postemergence, 0 is no effect, 100 is complete control; for Wheat plant response rating: Postemergence, 125 g ai/ha, 0 to 100 scale (0 no effect, 100 complete control)
Procedure, shortened: as §2

[13] = tested on: foxtail, giant (giant foxtail, Setaria faberii); assay: Test A postemergence, visual plant response rating; details: for Foxtail, Giant plant response rating (0 to 100 scale): 500 g ai/ha, postemergence, 0 is no effect, 100 is complete control; for Foxtail, Giant plant response rating: Postemergence, 125 g ai/ha, 0 to 100 scale (0 no effect, 100 complete control)
Procedure, shortened: as §2

[14] = tested on: barnyardgrass (Echinochloa crus-galli); assay: Test A postemergence, visual plant response rating; details: for Barnyardgrass plant response rating (0 to 100 scale): 500 g ai/ha, postemergence, 0 is no effect, 100 is complete control; for Barnyardgrass plant response rating: Postemergence, 125 g ai/ha, 0 to 100 scale (0 no effect, 100 complete control)
Procedure, shortened: as §2

kochia (Kochia scoparia) [15] = assay: Test A postemergence, visual plant response rating; details: for Kochia plant response rating (0 to 100 scale): 500 g ai/ha, postemergence, 0 is no effect, 100 is complete control; for Kochia plant response rating: Postemergence, 125 g ai/ha, 0 to 100 scale (0 no effect, 100 complete control)
Procedure, shortened: as §2

[16] = tested on: blackgrass (Alopecurus myosuroides); assay: Test A postemergence, visual plant response rating; details: for Blackgrass plant response rating (0 to 100 scale): 500 g ai/ha, postemergence, 0 is no effect, 100 is complete control; for Blackgrass plant response rating: Postemergence, 125 g ai/ha, 0 to 100 scale (0 no effect, 100 complete control)
Procedure, shortened: as §2

corn (Zea mays) = assay: Test A postemergence, visual plant response rating; details: for Corn plant response rating (0 to 100 scale): 500 g ai/ha, postemergence, 0 is no effect, 100 is complete control; for Corn plant response rating: Postemergence, 125 g ai/ha, 0 to 100 scale (0 no effect, 100 complete control)
Procedure, shortened: as §2

[17] = tested on: Italian ryegrass (Lolium multiflorum); assay: Test A postemergence, visual plant response rating; details: for Ryegrass, Italian plant response rating (0 to 100 scale): 500 g ai/ha, postemergence, 0 is no effect, 100 is complete control; for Ryegrass, Italian plant response rating: Postemergence, 125 g ai/ha, 0 to 100 scale (0 no effect, 100 complete control)
Procedure, shortened: as §2

[18] = tested on: galium (catchweed bedstraw, Galium aparine); assay: Test A postemergence, visual plant response rating; details: for Galium plant response rating (0 to 100 scale): 500 g ai/ha, postemergence, 0 is no effect, 100 is complete control; for Galium plant response rating: Postemergence, 125 g ai/ha, 0 to 100 scale (0 no effect, 100 complete control)
Procedure, shortened: as §2

Structure (SMILES) | Plant response rating, Barnyardgrass (0 to 100 scale, 0 is no effect, 100 is complete control) [1] | Plant response rating, Sedge, Umbrella (0 to 100 scale, 0 is no effect, 100 is complete control) [2] | Plant response rating, Ducksalad (0 to 100 scale, 0 is no effect, 100 is complete control) [3] | Plant response rating, Rice (0 to 100 scale, 0 is no effect, 100 is complete control) (rice (Oryza sativa)) | Pigweed plant response rating [4] | Pigweed plant response rating (0 to 100 scale) [4] | Ragweed plant response rating [5] | Ragweed plant response rating (0 to 100 scale) [5] | Foxtail, Giant plant response rating [6] | Foxtail, Giant plant response rating (0 to 100 scale) [6] | Barnyardgrass plant response rating [7] | Barnyardgrass plant response rating (0 to 100 scale) [7] | Kochia plant response rating (kochia (Kochia scoparia) [8]) | Kochia plant response rating (0 to 100 scale) (kochia (Kochia scoparia) [8]) | Ryegrass, Italian plant response rating [9] | Ryegrass, Italian plant response rating (0 to 100 scale) [9] | Pigweed plant response rating (0 to 100 scale) [10] | Pigweed plant response rating [10] | Ragweed plant response rating (0 to 100 scale) [11] | Ragweed plant response rating [11] | other results
CON=C(c1cc(Cl)ccc1C)c1c(O)c(C)nn(C)c1=O [Compound 65] | 0 | 0 | 0 | 0 | 50 | 100 | 20 | 100 | 20 | 40 | 20 | 50 | 0 | 30 | 0 | 30 | 90 | 90 | 80 | 60 | Wheat plant response rating (0 to 100 scale) [12]: 20; Wheat plant response rating [12]: 0; Foxtail, Giant plant response rating (0 to 100 scale) [13]: 70; Foxtail, Giant plant response rating [13]: 30; Barnyardgrass plant response rating (0 to 100 scale) [14]: 40; Barnyardgrass plant response rating [14]: 30; Kochia plant response rating (0 to 100 scale) (kochia (Kochia scoparia) [15]): 80; Kochia plant response rating (kochia (Kochia scoparia) [15]): 70; Blackgrass plant response rating (0 to 100 scale) [16]: 30; Blackgrass plant response rating [16]: 10; Corn plant response rating (0 to 100 scale) (corn (Zea mays)): 0; Corn plant response rating (corn (Zea mays)): 0; Ryegrass, Italian plant response rating (0 to 100 scale) [17]: 90; Ryegrass, Italian plant response rating [17]: 50; Galium plant response rating (0 to 100 scale) [18]: 90; Galium plant response rating [18]: 70
CON=C(c1cc(C)ccc1Cl)c1c(O)c(C)nn(C)c1=O [Compound 67] | 0 | 0 | 0 | 0 | 0 | 0 | 10 | 10 | 0 | 0 | 0 | 0 | 0 | 10 | 0 | 10 | 30 | 0 | 70 | 50 | Wheat plant response rating (0 to 100 scale) [12]: 0; Wheat plant response rating [12]: 0; Foxtail, Giant plant response rating (0 to 100 scale) [13]: 10; Foxtail, Giant plant response rating [13]: 0; Barnyardgrass plant response rating (0 to 100 scale) [14]: 0; Barnyardgrass plant response rating [14]: 0; Kochia plant response rating (0 to 100 scale) (kochia (Kochia scoparia) [15]): 20; Kochia plant response rating (kochia (Kochia scoparia) [15]): 20; Blackgrass plant response rating (0 to 100 scale) [16]: 30; Blackgrass plant response rating [16]: 0; Corn plant response rating (0 to 100 scale) (corn (Zea mays)): 0; Corn plant response rating (corn (Zea mays)): 0; Ryegrass, Italian plant response rating (0 to 100 scale) [17]: 20; Ryegrass, Italian plant response rating [17]: 10; Galium plant response rating (0 to 100 scale) [18]: 80; Galium plant response rating [18]: 70
